These results are taken from patent US10669288B2, “Lanthanide complexes based on triethylenetetramine-N,N,N′,N″,N′″,N′″-hexaacetic acid derivatives” (UNIVERSITE D'ORLEANS, priority 2017, dated 2020).

Several values for one entry are separate records, joined by “and”; a condition that tells them apart may be missing. Identical values can stand only once.

Data set [1] can be described thus: Photophysical properties (absorption, emission, luminescence lifetime, quantum yields) in solution. The data set is classed as physicochemical. From the text: L1 ligand and L1Nd^3+ complex (Example 2) both have broad absorption bands which extend over a wavelength range having values as high as 750 nm with maxima centered at ˜615 and ˜670 nm and molar absorption coefficients up to 5·10^3 M^−1 cm^−1. Upon excitation of the low energy absorption bands located on L1 and on the L1Nd^3+ complex, it is possible to observe broadband emission signals from the chromophore ligand centered at ˜690 nm with a shoulder at ˜740 nm. The complex L1Nd^3+, when excited at a wavelength of 650 nm, produces a narrow emission band with a maximum at 1064 nm which is characteristic of the electronic structure of Nd^3+ resulting from the transition ^4F3/2→^4I11/2. […] As a result, ligand L1 and complex L1Nd^3+ both have excitation and emission wavelengths included in the domain of the biological diagnostic window (FIG. 1).
The quantitative luminescence parameters (luminescence lifetime (i) and luminescence quantum yields centered on L1-(QL) and on Nd^3+-(QNd)) determined on the L1Nd^3+ complex are summarized in Table 3.1.
Relatively short life time values T (in the nanosecond range) and low QNd quantum yields have been measured for the near-infrared emission of Nd^3+ in comparison with the highest corresponding values that have been published to date. […]
The quantum yield of the emission from the ligand is lower by a ratio of 30% for the Nd^3+ complex relative to the L1 ligand. […] It is important to point out that narrow Nd^3+ emission band positions are unaffected by microenvironmental changes, which is a major advantage over the “wavelength” indocyanine green commercial fluorophore. of similar excitation (Fernandez-Fernandez, R. Manchanda, T. Lei, D. A. Carvajal, Y. Tang, S. Z. Razza Kazmi, A. J. McGoron, Comparative study of the optical and heat generation properties of IR820 and indocyanine green, Molecular imaging, 11 (2012) 99 and S. Mordon, J. M. Devoisselle, S. Soulie-Begu, T. Desmetter, Indocyanine green: Physicochemical factors affecting its fluorescence in vivo, Microvascular Research, 55 (1998) 146-152).

Data set [2] in a line: Photostability in solution under continuous illumination at 630 nm. The data set is classed as physicochemical. To be noted: 3 h continuous illumination at 630 nm; 100 μM, HEPES pH 7.5, room temperature. The source says: The photostabilities of L1 and L1Nd^3+ were studied under continuous illumination at 630 nm (FIG. 2).

On to `NCCNc1ccc(NCCNC(=O)CN(CCN(CCN(CCN(CC(=O)O)CC(=O)O)CC(=O)O)CC(=O)O)CC(=O)O)c2c1C(=O)c1c(O)ccc(O)c1C2=O` [Compound L1, 3-(2-((2-((4-((2-aminoethyl)amino)-5,8-di hydroxy-9,10-dioxo-9,10-dihydroanthracen-1-yl)aminoacid)ethyl)amino)-2-oxoethyl)-6,9,12-tris(carboxymethyl)-3,6,9,12-tétraazatétradécane-1,14-dioic], for which the absorption maxima in data set [1] (broad absorption bands extending to 750 nm, HEPES buffer) is ~615 nm and ~670 nm. Further, the “QL(%) (quantum yield centered on L1)” value in data set [1] (excitation at 620 nm, emission collected 640-850 nm, 100 μM, pH = 7.5, room temperature) was 0,257(5) %. Also, the “broadband emission from the chromophore ligand, centre” value in data set [1] (excitation of low energy absorption bands, shoulder at ~740 nm) was roughly 690 nm. Further, the “loss of initial emission intensity” value in data set [2] is on record as roughly 70%.
